Patent publication US9464064B2, “HCV helicase inhibitors and methods of use thereof” (University of Kansas, priority 2011, dated 2016)
Like-named read-outs stand apart in the source and are kept apart here.

How the values were obtained:
[1] = biological target: T1, E. coli SSB-Cy5-dT15 complex (Escherichia coli, UniProt P0AGE0); experiment: Escherichia coli SSB Cy5-dT15 binding assay (fluorescence polarization); settings: for inhibition at 100 µM: read-out: SSB % Displaced @ 100 μM
T1 construct: purchased Promega
T1 sequence (P0AGE0 2-178, one chain of several): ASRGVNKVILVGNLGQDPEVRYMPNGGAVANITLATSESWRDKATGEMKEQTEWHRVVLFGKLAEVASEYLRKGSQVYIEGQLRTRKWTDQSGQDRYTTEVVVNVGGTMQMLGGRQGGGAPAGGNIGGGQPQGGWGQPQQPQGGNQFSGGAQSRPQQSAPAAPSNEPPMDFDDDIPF
Summary of the method: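 Fluorescence polarization with 5 nM Cy5-dT15 and 20 nM E. coli SSB in 25 mM MOPS pH 7.5, 1.25 mM MgCl2, BSA, Tween 20, DTT. Screening at 1% DMSO; IC50 runs at 5% DMSO. Excitation 635 nm, parallel and perpendicular emission at 667 nm.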

MBHA DNA substrate = experiment: Modified FID assay, SYBR Green I; assay type: binding; settings: for FID (SG) % Displaced @ 100 μM / EC50: SYBR Green; for EC50: read-out: FID (SG) EC50 (converted); for DNA binding (%): SYBR Green I-FID, average (±SD) percent bound at 100 μM
Summary of the method: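 Fluorescent intercalator displacement with SYBR Green I (0.68 μM) in place of ethidium bromide and MBHA DNA at 0.32 μM. Normalized data fit to concentration-response equation; EC50 given as mean ± SD of three independent triplicate titrations.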

[2] = test system: HCV RLuc subgenomic replicon (genotype 1b) in Huh-7.5 cells; experiment: HCV subgenomic replicon assay (Renilla luciferase); assay type: cell-based, hepatitis C virus; settings: Hepatitis C virus
Summary of the method: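 Huh-7.5 cells stably harbouring the genotype 1b HCV RLuc subgenomic replicon were treated with compound at 10 μM final (0.5% DMSO) for 72 h at 37 °C. Replication was assessed as Renilla luciferase activity in lysates relative to DMSO-treated cells.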

[3] = disruption of Cy5-dT15-SSB complex, read-out: Cy5-dT15-SSB Binding IC50
[4] = Huh7.5, 10 μM, read-out: Replicon (% Inhibition @ 10 μM)
[5] = Huh7.5, 10 μM compound, triplicate, average ± SD, read-out: HCV replication (% Inh.)
[6] = Huh7.5, read-out: HCV replication (% Inh.)
[7] = Huh7.5, read-out: Replicon (% Inhibition @ 10 μM)

Row | Structure (SMILES) | IC50 [1, 3] | inhibition at 100 µM [1] | EC50 ([1]; read-out: SSB EC50) | FID (SG) % Displaced @ 100 μM (MBHA DNA substrate) | EC50 (MBHA DNA substrate) | inhibition at 10 µM [2, 4] | DNA binding (%) (MBHA DNA substrate) | inhibition at 10 µM [2, 5] | EC50 [1] | IC50 [1] | inhibition at 10 µM [2, 6] | inhibition at 10 µM [2, 7]
1 | Cc1ccc2nc(-c3ccc(NC(=O)c4ccc(NC(=O)c5ccccc5)cc4)cc3)sc2c1S(=O)(=O)O.N [Compound 40] | 57 ± 13 µM | 84% | 57 µM | 18 ± 2% | > 100 µM | -19 ± 42% |  |  |  |  |  | 
2 | Cc1ccc2nc(-c3ccc4nc(-c5ccc(NC(=O)c6ccc(NC(=O)OCC7c8ccccc8-c8ccccc87)cc6)cc5)sc4c3)sc2c1S(=O)(=O)O [Compound 16, 2′-(4-(4-((((9H-fluoren-9-yl)methoxy)carbonyl)amino)benzamido)phenyl)-6-methyl-[2,6′-bibenzo[d]thiazole]-7-sulfonic acid] | 179 ± 239 µM | 53% | > 100 µM | 76 ± 5% | 6 ± 2 µM | 57 ± 21% | 76 ± 5% | 57 ± 21% |  |  |  | 
3 | Cc1ccc2nc(-c3ccc4nc(-c5ccc(NC(=O)c6cccc(Cl)c6)cc5)sc4c3)sc2c1S(=O)(=O)O [Compound 17, 2′-(4-(3-chlorobenzamido)phenyl)-6-methyl-[2,6′-bibenzo[d]thiazole]-7-sulfonic acid] | 201 ± 119 µM | 47% | > 100 µM | 41 ± 11% | > 100 µM | 54 ± 10% | 41 ± 11% | 54 ± 10% |  |  |  | 
4 | COc1ccc(NC(=O)Nc2ccc(-c3nc4ccc(-c5nc6ccc(C)c(S(=O)(=O)O)c6s5)cc4s3)cc2)cc1 [Compound 55] | 4 ± 1 µM | 95% | 4 µM | 55 ± 6% | 73 µM | 21 ± 10% |  |  |  |  |  | 
5 | Cc1ccc2nc(-c3ccc4nc(-c5ccc(NC(=O)c6ccccc6)cc5)sc4c3)sc2c1S(=O)(=O)O [Compound 5, 2′-(4-benzamidophenyl)-6-methyl-[2,6′-bibenzo[d]thiazole]-7-sulfonic acid] | 4 ± 1 µM | 91% | 4 ± 1 µM | 31 ± 13% | > 100 µM | 45 ± 5% | 31 ± 13% | 45 ± 5% |  |  |  | 
6 | Cc1ccc2nc(-c3ccc4nc(-c5ccc(NC(=O)c6ccc(Cl)c(Cl)c6)cc5)sc4c3)sc2c1S(=O)(=O)O [Compound 18, 2′-(4-(3,4-dichlorobenzamido)phenyl)-6-methyl-[2,6′-bibenzo[d]thiazole]-7-sulfonic acid] | 128 ± 57 µM | 53% | > 100 µM | 67 ± 12% | 30 ± 32 µM | 43 ± 15% | 67 ± 12% | 43 ± 15% |  |  |  | 
7 | Cc1ccc2nc(-c3ccc4nc(-c5ccc(NC(=O)c6ccc(N)cc6)cc5)sc4c3)sc2c1S(=O)(=O)O [Compound 6, 2′-(4-(4-aminobenzamido)phenyl)-6-methyl-[2,6′-bibenzo[d]thiazole]-7-sulfonic acid] | 2 ± 1 µM | 99% | 3 ± 1 µM | 63 ± 15% | 55 ± 13 µM | 33 ± 1% | 63 ± 15% | 33 ± 1% |  |  |  | 
8 | COc1ccc(C(=O)Nc2ccc(-c3nc4ccc(-c5nc6ccc(C)c(S(=O)(=O)O)c6s5)cc4s3)cc2)cc1 [Compound 8, 2′-(4-(4-methoxybenzamido)phenyl)-6-methyl-[2,6′-bibenzo[d]thiazole]-7-sulfonic acid] |  | 92% |  | 35 ± 10% | > 100 µM |  | 35 ± 10% |  | 2 ± 1 µM | 2 ± 1 µM | 64 ± 4% | 64 ± 4%
9 | Cc1ccc2nc(-c3ccc4nc(-c5ccc(NC(=O)c6ccc(Cl)cc6)cc5)sc4c3)sc2c1S(=O)(=O)O [Compound 10, 2′-(4-(4-chlorobenzamido)phenyl)-6-methyl-[2,6′-bibenzo[d]thiazole]-7-sulfonic acid] |  | 80% |  | 67 ± 17% | 31 ± 15 µM |  | 67 ± 17% |  | 46 ± 52 µM | 46 ± 52 µM | 42 ± 9% | 42 ± 9%
10 | Cc1ccc2nc(-c3ccc4nc(-c5ccc(NC(=O)c6ccc7ccccc7c6)cc5)sc4c3)sc2c1S(=O)(=O)O [Compound 33, 2′-(4-(2-naphthamido)phenyl)-6-methyl-[2,6′-bibenzo[d]thiazole]-7-sulfonic acid] | 28 ± 9 µM | 78% | 28 µM | 63 ± 11% | 25 µM | 21 ± 33% | 64 ± 7% | 61 ± 10% |  |  |  | 
11 | Cc1ccc2nc(-c3ccc4nc(-c5ccc(NC(=O)c6ccccc6C(F)(F)F)cc5)sc4c3)sc2c1S(=O)(=O)O [Compound 19, 6-methyl-2′-(4-(2-(trifluoromethyl)benzamido)phenyl)-[2,6′-bibenzo[d]thiazole]-7-sulfonic acid] | 13 ± 2 µM | 92% | 13 ± 2 µM | 30 ± 15% | > 100 µM | 0.3 ± 9% | 30 ± 15% | 0% |  |  |  | 
12 | COC(=O)c1ccc(C(=O)Nc2ccc(-c3nc4ccc(-c5nc6ccc(C)c(S(=O)(=O)O)c6s5)cc4s3)cc2)cc1 [Compound 9, 2′-(4-(4-(methoxycarbonyl)benzamido)phenyl)-6-methyl-[2,6′-bibenzo[d]thiazole]-7-sulfonic acid] | 1 µM | 91% | 2 ± 0.5 µM | 28 ± 10% | > 100 µM | 40 ± 1% | 28 ± 10% | 40 ± 1% |  |  |  | 
13 | Cc1ccc2nc(-c3ccc4nc(-c5ccc(NC(=O)c6ccc7nc(-c8ccc(NC(=O)OCC9c%10ccccc%10-c%10ccccc%109)cc8)sc7c6)cc5)sc4c3)sc2c1S(=O)(=O)O.N [Compound 36] | 5 ± 1 µM | 95% | 5 µM | 67 ± 5% | 22 µM | 44 ± 9% | 67 ± 5% | 42 ± 5% |  |  |  | 
